The source of these data is patent publication US6548553B2, “Styryl sulfone anticancer agents” (Temple University-of the Commonwealth System of Higher …, priority 1997, dated 2003).

A short description of series [1]: Trypan blue exclusion viability assay, normal fibroblasts. The format is cell-based. Also on record: viability at 48 h: dose or concentration left out as unconfirmed. To be noted: mouse, NIH3T3 cells (normal fibroblasts). As for the experimental part:
The effect of the styryl sulfones on the growth of normal and tumor cells of breast and prostate was examine utilizing four cell lines, NIH3T3, MCF-7, BT-20 and LnCap. NIH/3T3 cells represent normal fibroblasts while LnCap is an androgen-dependent prostate tumor cell line. MCF-7 is an estrogen-responsive breast tumor cell line, while BT-20 is an estrogen-unresponsive breast tumor cell line. MCF-7 and BT-20 were grown in Dulbecco's modified Eagle's medium (DMEM) containing 10% fetal bovine serum supplemented with penicillin and streptomycin. LnCaP were cultured in RPMI with 10% fetal bovine serum containing penicillin and streptomycin. NIH3T3 cells were grown in DMEM containing 10% calf serum supplemented with penicillin and streptomycin. All cell cultures were maintained at 37° C. in a humidified atmosphere of 5% CO2.
The compounds identified in Tables 2, 3 and 4 inhibited cell growth and induced cell death, to varying degrees. The tables list the percent viable LnCap and MCF-7 cells treated with 5.0 μM compound.
The percentage of living cells was determined by Trypan blue exclusion. The control cells were treated with DMSO to determine the effect of solvent on cells. […] Under these conditions, only 2-3% of NIH3T3 cells were non-viable at both the concentrations. […] After 48 hours incubation, 60-75% of the LnCaP, BT-20 and MCF-7 cells were dead at […] FRI-20 concentration, whereas more than 90% of NIH3T3 cells were viable (FIG. 2A).

In a further series the test system is U87. Briefly: GI50 growth inhibition, trypan blue cell count. Format: cell-based, human. To be noted: Homo sapiens, U-87 MG; glioblastoma; 96 hours after addition. On the procedure: (§1) The human carcinoma cell lines listed in Table 5 below were purchased from ATCC and grown in an appropriate growth medium containing 10% fetal bovine serum (FBS) and antibiotics. The cells were plated at a cell density of 1.0×10^5 cells per […] in 6-well dishes. The cells were treated with various concentrations of (E)-fluorostyryl-4-bromobenzylsulfone 24 hours after plating in a total volume of 1 ml of medium using dimethylsulfoxide (DMSO) as a solvent for the compound. Control cells were treated with DMSO alone. The total number of viable cells was determined 96 hours after the addition of the compound by counting the cells in each well using a hemacytometer after trypan blue staining (viable cells exclude the stain). The counts were done in duplicate and the average was graphed in FIG. 8 as a percentage of the non-treated control group.

For another series, the system named is DLD-1. Briefly: GI50 growth inhibition, trypan blue cell count. To be noted: Homo sapiens, DLD-1; cob-rectal; 96 hours after addition. Format: cell-based, human. On the procedure:
as §1

The next series deals with H157. Briefly: GI50 growth inhibition, trypan blue cell count. Format: cell-based, human. To be noted: Homo sapiens, NCI-H157; lung, non-small cell; 96 hours after addition. As for the experimental part: as §1
A further series relates to MIA-PaCa-2. Briefly: GI50 growth inhibition, trypan blue cell count. The conditions noted are these: Homo sapiens, MIA PaCa-2; pancreatic; 96 hours after addition. The format is cell-based, human. As for the experimental part: as §1
The subject of the next series is SKBR-3 and BT-20 cells. Briefly: Trypan blue exclusion viability assay, breast tumor cell lines. The format is cell-based. To be noted: 48 hours. As for the experimental part:
(§2) The effect of FR-20 on the growth of normal and tumor cells of breast and prostate was examine utilizing nine cell lines: NIH/3T3 and HFL (normal fibroblast cell lines); MCF-7 and 361 ([…] breast tumor cell lines); BT-20, 435 and SKBR-3 ([…] breast tumor cell lines); LnCaP (androgen sensitive prostate tumor cell line); PC-3 and DU-145 (androgen insensitive prostate tumor cell line).
(§3) The cells were grown as in Example 22, A. FR-20 was dissolved in DMSO and added to the cells at 2.5 μM and 5.0 μM concentration. To control cells, DMSO was added equivalent to the volume of solvent (DMSO) present at the highest concentration of the compound. The activity of the compound was evaluated after 48 hours by Trypan blue exclusion. […] Nearly 50% of SKBR-3 and BT-20 cells were dead at 2.5 μM and 75% at 5.0 μM concentration of the compound. […] FRI-20 had profound effect on the viability of androgen-dependent LnCaP prostate tumor cell line when compared to androgen-independent DU-145 and PC-3 prostate cell lines. At […] FRI-20, 80% of LnCaP, 40% of PC-3 and 20% of DU-145 cells were killed. At […] FRI-20, 72% of LnCaP, 47% of PC-3 and 40% of DU-145 were killed (FIG. 3B).

Series [2] concerns MCF-7, HTB126, T470 and 435 cells. Described as above. Format: cell-based. The conditions noted are these: 48 hours. As for the experimental part:
as §2, §3

Another series has as its target T1, ERK-2 (Homo sapiens, UniProt P28482).
T1 construct: ERK-2 in 100 mg of cell lysate was immunoprecipitated; endogenous in cells; host or cells: LnCaP, MCF-7 (human) and NIH3T3 (mouse) cells
The experiment in a line: Immune complex ERK-2 kinase assay with MBP substrate, treated cells. Format: cell-based. Also on record: dose or concentration left out as unconfirmed. To be noted: prostate tumor cells. As for the experimental part:
To examine the effects of FRI-20 on the MAPK pathway, NIH3T3, LnCaP and MCF-7 cells were incubated with FRI-20 at a concentration […] for 48 hours. Following incubation of cells in the presence and absence of FRI-20, the cells were lysed using ERK lysis buffer containing 20 mM HEPES (pH 7.4), 50 mM β-glycerophosphate, 0.5% Triton X-100, 2 mM MgCl2, 1 mM EGTA, 1 mM dithiothreitol, 2 μg/ml leupeptin, 2 μg/ml aprotinin, 100 μM phenylmethylsulfonyl fluoride, and 1 mM benzamidine. ERK-2 in […] of cell lysate was immunoprecipitated by incubating lysate protein with […] of ERK-2 polyclonal antibody (antibody sc-154 to ERK2 is from Santa Cruz Biotechnology, Inc.) for one hour followed by an additional incubation of 20 μl of protein A-Sepharose (Pharmacia) for one hour. The immune complex-bound protein A-Sepharose beads were washed twice with lysis buffer and twice with
ERK/MAPK buffer containing 20 mM HEPES (pH 7.4), 50 mM β-glycerophosphate, 10 mM MgCl2, 1 mM EGTA, 1 mM dithiothreitol, and […] Na3VO4.
The immunoprecipitates were then tested for MAP kinase activity by an in vitro assay which utilizes myelin basic proteins (MBP) as a substrate for ERK-2 in the presence of [γ-^32P] ATP. Accordingly, the beads were resuspended in 40 μl of MAPK buffer containing 100 μM [γ-^32P] […]

What is called GI50 is the concentration giving 50% growth inhibition.

T1 sequence (P28482 2-360): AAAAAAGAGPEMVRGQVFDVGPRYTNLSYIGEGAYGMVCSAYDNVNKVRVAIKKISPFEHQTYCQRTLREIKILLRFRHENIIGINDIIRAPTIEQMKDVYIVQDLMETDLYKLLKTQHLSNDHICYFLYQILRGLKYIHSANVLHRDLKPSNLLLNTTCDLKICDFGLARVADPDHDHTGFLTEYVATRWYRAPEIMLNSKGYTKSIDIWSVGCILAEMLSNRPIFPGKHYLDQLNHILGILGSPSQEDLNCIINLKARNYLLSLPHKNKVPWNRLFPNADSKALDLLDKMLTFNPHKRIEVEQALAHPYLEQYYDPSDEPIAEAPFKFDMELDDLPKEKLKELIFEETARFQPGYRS

With `O=S(=O)(/C=C/c1ccc(F)cc1)Cc1ccc(Cl)cc1` [Example 11, E-4-fluorostyryl 4-chlorobenzyl Sulfone], in series [1] (250 nM and 500 nM, 48 hours, read-out: non-viable NIH3T3 cells), the cytotoxicity at 48 h was 2 to 3%. In addition, in series [1] (5 μM), the viability at 48 h, 5 µM was greater than 80%. Besides, in series [1] (48 hours incubation, read-out: viable NIH3T3 cells), the viability at 48 h was greater than 80%. Also, the GI50 in the series on U87 is 2000 nM; in the series on DLD-1, 1000 nM; in the series on H157, 1500 nM; in the series on MIA-PaCa-2 it was 500 nM. Besides, the dead cells is given as roughly 50% with SKBR-3 and BT-20 cells (2.5 µM); 75% in the series on SKBR-3 and BT-20 cells (5.0 µM). The viability at 2.5 µM in series [2] (2.5 µM) was less than 25%. In series [2] (5.0 µM), this compound had a viability at 5 µM of less than 10%. For the same compound, the “reduction of phosphorylation status of MBP compared to mock-treated cells” value at ERK-2 is listed as “more than 80%”.
